Results on 24 molecules are retold here after US20260158009A1 (GENZYME CORPORATION, priority 2023, published 2026).

Test [1] deals with U937 cells. Nature of the test: Cellular assay in U937 cells: activity of RIPK1 inhibitors on TNFα/zVAD.fmk-induced cell death (necroptosis), CellTiter 96 AQueous (MTS) readout. Type of test: cell-based. The following applies: Homo sapiens, U-937. A digest of the protocol:
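Necroptosis was measured by viable-cell MTS reduction (4 h, absorbance 490 nm) after overnight (18–24 h) 37° C culture. Cell suspensions of U937 cells carried TNFα (100 ng/ml) plus zVAD.fmk (50 μM) before compound was added. A 10-point curve (10 μM–0.26 nM or 1 μM–0.07 nM) was run in duplicate, normalised to the control lacking TNFα/zVAD.fmk.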

In test [2] the target is T1, hRIPK1 (aa 1-375) fusion protein (Homo sapiens, UniProt Q13546).
T1 construct: hRIPK1 (aa 1-375) fusion protein
T1 sequence (Q13546 1-375): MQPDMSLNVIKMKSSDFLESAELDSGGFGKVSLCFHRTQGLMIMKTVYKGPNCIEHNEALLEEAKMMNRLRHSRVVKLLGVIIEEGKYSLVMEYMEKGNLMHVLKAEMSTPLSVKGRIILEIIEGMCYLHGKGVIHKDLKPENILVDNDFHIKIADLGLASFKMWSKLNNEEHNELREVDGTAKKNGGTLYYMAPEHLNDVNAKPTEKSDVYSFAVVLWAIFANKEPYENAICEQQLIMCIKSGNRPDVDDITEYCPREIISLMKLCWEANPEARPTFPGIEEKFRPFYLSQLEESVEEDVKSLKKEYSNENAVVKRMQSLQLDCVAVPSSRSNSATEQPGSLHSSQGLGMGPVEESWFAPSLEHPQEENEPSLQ
The test is described as follows: ADP-Glo kinase assay: catalytic activity of RIPK1 (autophosphorylation, conversion of ATP to ADP). Type of test: biochemical. Summed up:
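hRIPK1 (aa 1-375) fusion protein (3.6 μg/ml final) was preincubated 30 min at rt with compound (33300-1.69 nM, 1% DMSO), then 50 μM ATP was added for 240 min at rt. ADP from autophosphorylation was measured by ADP-Glo luminescence and curves fitted by nonlinear regression.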
For orientation: In ADP-Glo the light output rises with the ADP produced.

pIC50: −log10 of the molar value.

On to `N#Cc1cncc([C@@H]2CCON2C(=O)[C@H]2CC[C@H](Cc3ccc(F)c(C(N)=O)c3)CC2)c1` [compound 194, trans-5-[[4-[(3S)-3-(5-cyano-3-pyridyl)isoxazolidine-2-carbonyl]cyclohexyl]methyl]-2-fluoro-benzamide], for which the negative logarithm of the IC50 (pIC50) – broadly, the negative decadic logarithm of the IC50, by convention in mol/L – in test [1] was 8.00; in test [2], 7.68.

Consider `Cc1ccc(C[C@H]2CC[C@H](C(=O)N3OCC[C@H]3c3cc(F)cc(C#N)c3)CC2)nn1` [compound 303, trans-3-fluoro-5-[(3S)-2-[4-[(6-methylpyridazin-3-yl)methyl]cyclohexanecarbonyl]isoxazolidin-3-yl]benzonitrile], for which the results for the pIC50 in test [1] and in test [2] were 7.80 and 8.15, respectively.

For the molecule `Cc1cc([C@@H]2CCON2C(=O)[C@H]2CC[C@H](Cn3ncc4c(F)cc(C#N)cc43)CC2)co1` [compound 44, trans-4-fluoro-1-((4-((S)-3-(5-methylfuran-3-yl)isoxazolidine-2-carbonyl)cyclohexyl)methyl)-1H-indazole-6-carbonitrile], the pIC50 was 8.70 in test [1] and 7.77 in test [2].

As to `Cc1ncc(C[C@H]2CC[C@H](C(=O)N3OCC[C@H]3c3cnc(C)c(F)c3)CC2)cn1` [compound 343, trans-[(3S)-3-(5-fluoro-6-methylpyridin-3-yl)-1,2-oxazolidin-2-yl]-[4-[(2-methylpyrimidin-5-yl)methyl]cyclohexyl]methanone], the pIC50 is 7.68 in test [1] and 7.37 in test [2].

For `Cc1ccc([C@@H]2CCON2C(=O)[C@H]2CC[C@H](Cn3ncc4cc(C#N)c(F)cc43)CC2)cn1` [compound 298, 6-fluoro-1-[[trans-4-[(3S)-3-(6-methyl-3-pyridyl)isoxazolidine-2-carbonyl]cyclohexyl]methyl]indazole-5-carbonitrile], the figures for the pIC50 in test [1] and in test [2] were 8.22 and 7.70, respectively.

For `Cc1nccn1-c1cc(F)cc(C[C@H]2CC[C@H](C(=O)N3OCC[C@H]3c3cncc(F)c3)CC2)c1` [compound 220, trans-[4-[[3-fluoro-5-(2-methylimidazol-1-yl)phenyl]methyl]cyclohexyl]-[(3S)-3-(5-fluoro-3-pyridyl)isoxazolidin-2-yl]methanone], the negative logarithm of the IC50 (pIC50) in test [1] is 7.92; in test [2], 7.59.

For the molecule `N#Cc1ccc2cn(C[C@H]3CC[C@H](C(=O)N4OCC[C@H]4c4cnccn4)CC3)nc2c1` [compound 196, trans-2-[[4-[(3S)-3-pyrazin-2-ylisoxazolidine-2-carbonyl]cyclohexyl]methyl]indazole-6-carbonitrile], the pIC50 in test [1] was 6.42; in test [2], 7.12.

As to `COc1cncc([C@@H]2CCON2C(=O)[C@H]2CC[C@H](Cn3ncc4ccc(C(N)=O)cc43)CC2)n1` [Compound 201, trans-1-[[4-[(3S)-3-(6-methoxypyrazin-2-yl)isoxazolidine-2-carbonyl]cyclohexyl]methyl]indazole-6-carboxamide], the pIC50 was 6.72 in test [1] and 7.21 in test [2].

Consider `Cc1cn2nc(C[C@H]3CC[C@H](C(=O)N4OCC[C@H]4c4cc(F)cc(F)c4)CC3)c(C)cc2n1` [compound 293, trans-[(3S)-3-(3,5-difluorophenyl)isoxazolidin-2-yl]-[4-[(2,7-dimethylimidazo[1,2-b]pyridazin-6-yl)methyl]cyclohexyl]methanone], for which the pIC50 was 8.52 in test [1] and 7.85 in test [2].

With `NC(=O)c1ccc2ccn(C[C@H]3CC[C@H](C(=O)N4OCC[C@H]4c4cc(F)cc(F)c4)CC3)c2c1` [compound 105, trans-1-((4-((S)-3-(3,5-difluorophenyl)isoxazolidine-2-carbonyl)cyclohexyl)methyl)-1H-indole-6-carboxamide], the pIC50 is 8.40 in test [1] and 7.82 in test [2].

Turning to `CNC(=O)c1ccc(F)c(C[C@H]2CC[C@H](C(=O)N3OCC[C@H]3c3cncc(C#N)c3)CC2)c1` [compound 176, trans-3-[[4-[(3S)-3-(5-cyano-3-pyridyl)isoxazolidine-2-carbonyl]cyclohexyl]methyl]-4-fluoro-N-methyl-benzamide], the pIC50 in test [1] was 7.82; in test [2], 7.89.

Regarding `N#Cc1cc2c(cnn2C[C@H]2CC[C@H](C(=O)N3OCC[C@H]3c3cc(F)cc(F)c3)CC2)cc1F` [compound 86, trans-1-((4-((S)-3-(3,5-difluorophenyl)isoxazolidine-2-carbonyl)cyclohexyl)methyl)-5-fluoro-1H-indazole-6-carbonitrile], the pIC50 is 9.00 in test [1] and 7.85 in test [2].

In the case of `O=C([C@H]1CC[C@H](Cc2cncc(F)c2)CC1)N1OCC[C@H]1c1cnccn1` [compound 147, trans-[4-[(5-fluoro-3-pyridyl)methyl]cyclohexyl]-[(3S)-3-pyrazin-2-ylisoxazolidin-2-yl]methanone], the pIC50 in test [1] is 7.40; in test [2], 7.57.

Take `N#Cc1cc(F)cc([C@@H]2CCON2C(=O)[C@H]2CC[C@H](Cc3cc(F)cc(CCO)c3)CC2)c1` [compound 282, trans-3-fluoro-5-[(3S)-2-[4-[[3-fluoro-5-(2-hydroxyethyl)phenyl]methyl]cyclohexanecarbonyl]isoxazolidin-3-yl]benzonitrile]: the pIC50 in test [1] was 8.00; in test [2], 7.74.

In the case of `Cc1cn2cc(C[C@H]3CC[C@H](C(=O)N4OCC[C@H]4c4cc(F)cc(F)c4)CC3)ccc2n1` [compound 227, trans-[(3S)-3-(3,5-difluorophenyl)isoxazolidin-2-yl]-[4-[(2-methylimidazo[1,2-a]pyridin-6-yl)methyl]cyclohexyl]methanone], the pIC50 in test [1] is 8.30; in test [2] it was 7.64.

Take `Cc1cncc([C@@H]2CCON2C(=O)[C@H]2CC[C@H](Cc3cc(C)c4ncnn4c3)CC2)c1` [compound 334, trans-[(3S)-3-(5-methylpyridin-3-yl)-1,2-oxazolidin-2-yl]-[4-[(8-methyl-[1,2,4]triazolo[1,5-a]pyridin-6-yl)methyl]cyclohexyl]methanone]: the pIC50 is 7.46 in test [1] and 7.70 in test [2].

`Cc1ncc(C[C@H]2CC[C@H](C(=O)N3OCC[C@H]3c3ccc(F)c(F)c3)CC2)cn1` [compound 309, trans-[(3S)-3-(3,4-difluorophenyl)isoxazolidin-2-yl]-[4-[(2-methylpyrimidin-5-yl)methyl]cyclohexyl]methanone]: the pIC50 is 7.30 in test [1] and 7.82 in test [2].

For the molecule `Cc1ccc(CC23CCC(C(=O)N4OCC[C@H]4c4cc(F)cc(F)c4)(CC2)CC3)cc1C(N)=O` [compound 273, 5-[[4-[(3S)-3-(3,5-difluorophenyl)-1,2-oxazolidine-2-carbonyl]-1-bicyclo[2.2.2]octanyl]methyl]-2-methylbenzamide], the pIC50 in test [1] was 8.05; in test [2], 7.82.

As to `NC(=O)c1cc(C[C@H]2CC[C@H](C(=O)N3OCC[C@H]3c3cc(F)cc(F)c3)CC2)ccc1F` [compound 192, trans-5-[[4-[(3S)-3-(3,5-difluorophenyl)isoxazolidine-2-carbonyl]cyclohexyl]methyl]-2-fluoro-benzamide], the pIC50 in test [1] is 8.52; in test [2] it was 8.30.

With `Cc1c(C#N)cncc1C[C@H]1CC[C@H](C(=O)N2OCC[C@H]2c2cc(F)cc(C#N)c2)CC1` [compound 276, trans-5-[[4-[(3S)-3-(3-cyano-5-fluoro-phenyl)isoxazolidine-2-carbonyl]cyclohexyl]methyl]-4-methyl-pyridine-3-carbonitrile], the figures for the pIC50 in test [1] and in test [2] were 8.05 and 7.70, respectively.

`Cc1cc([C@@H]2CCON2C(=O)[C@H]2CC[C@H](Cn3cc4ccc(C#N)cc4n3)CC2)co1` [compound 41, trans-2-((4-((S)-3-(5-methylfuran-3-yl)isoxazolidine-2-carbonyl)cyclohexyl)methyl)-2H-indazole-6-carbonitrile]: the figures for the negative-log IC50 (pIC50) in test [1] and in test [2] were 7.04 and 7.52, respectively.

For the molecule `COc1cncc([C@@H]2CCON2C(=O)[C@H]2CC[C@H](Cn3ccc4cc(C(N)=O)ccc43)CC2)n1` [compound 253, trans-1-[[4-[(3S)-3-(6-methoxypyrazin-2-yl)isoxazolidine-2-carbonyl]cyclohexyl]methyl]indole-5-carboxamide], the pIC50 in test [1] is 6.76; in test [2], 7.74.

As to `Cc1nnc2ccc(CC3CCC(C(=O)N4OCC[C@H]4c4cnccn4)CC3)c(C)n12` (stereo partly drawn) [compound 358, [4-[(3,5-dimethyl-[1,2,4]triazolo[4,3-a]pyridin-6-yl)methyl]cyclohexyl]-[(3S)-3-pyrazin-2-yl-1,2-oxazolidin-2-yl]methanone], the negative logarithm of the IC50 (pIC50) in test [1] was 6.32; in test [2] it was 7.51.

With `Cc1nc([C@@H]2CCON2C(=O)[C@H]2CC[C@H](Cn3ncc4ccc(C#N)cc43)CC2)cs1` [compound 204, trans-1-[[4-[(3S)-3-(2-methylthiazol-4-yl)isoxazolidine-2-carbonyl]cyclohexyl]methyl]indazole-6-carbonitrile], the results for the pIC50 in test [1] and in test [2] were 8.70 and 7.68, respectively.
